What was measured:
[1] = molecular target: T1, hAChE (Homo sapiens, UniProt P22303); assay: biochemical; settings: for IC50: mean ± SD of three independent measurements, each in triplicate; for inhibition at 100 µM: tested at 100 µM compound concentration, read-out: %Inhibition hAChE ± SD
T1 construct: 8.3 μL of either blood cell lysate or plasma dilutions; from tissue; host or cells: blood cell lysate
Description: (§1) The hAChE and hBuChE activities were determined using a modified method of Ellman, as described. Briefly, hAChE and hBuChE activities were determined using a modified method of Ellman, with acetylthiocholine iodide (ATChI) and butyrylthiocholine iodide (BuTChI) as substrates, respectively. Briefly, 8.3 μL of either blood cell lysate or plasma dilutions (at least six different concentrations), 283 μL of 5 mM 5,5′-dithiobis-2-nitrobenzoic acid (DTNB) and 8.3 μL of the sample dilution in dimethyl sulfoxide (DMSO) (40 mM, 10 mM, 4 mM, 1 mM, 0.4 mM, and 0 mM) were added to the semi-micro cuvette. The reaction was initiated by addition of 33.3 μL 10 mM substrate (ATChI or BuTChI). The final proportion of DTNB and substrate was […]. The increase of absorbance (ΔA) at 436 nm for AChE and 412 nm for BuChE was measured for 1 min at 37 °C using a spectrophotometer (Synergy^TM HT Multi-Detection Microplate Reader). Each measurement was repeated six times for every concentration of enzyme preparation.

[2] = molecular target: T2, hBuChE (Homo sapiens, UniProt P06276); assay: biochemical; format: biochemical; settings: for IC50: mean ± SD of three independent measurements, each in triplicate; for inhibition at 100 µM: tested at 100 µM compound concentration, read-out: % inhibition hBuChE ± SD; for SI for hBuChE: ratio hAChE IC50/hBuChE IC50
T2 construct: 8.3 μL of either blood cell lysate or plasma dilutions; from tissue; host or cells: plasma
Description: as §1

[3] = molecular target: T3, POP (EC 3.4.21.26) (Homo sapiens, UniProt P48147); assay: POP inhibition assay; format: biochemical
T3 sequence (P48147 1-710): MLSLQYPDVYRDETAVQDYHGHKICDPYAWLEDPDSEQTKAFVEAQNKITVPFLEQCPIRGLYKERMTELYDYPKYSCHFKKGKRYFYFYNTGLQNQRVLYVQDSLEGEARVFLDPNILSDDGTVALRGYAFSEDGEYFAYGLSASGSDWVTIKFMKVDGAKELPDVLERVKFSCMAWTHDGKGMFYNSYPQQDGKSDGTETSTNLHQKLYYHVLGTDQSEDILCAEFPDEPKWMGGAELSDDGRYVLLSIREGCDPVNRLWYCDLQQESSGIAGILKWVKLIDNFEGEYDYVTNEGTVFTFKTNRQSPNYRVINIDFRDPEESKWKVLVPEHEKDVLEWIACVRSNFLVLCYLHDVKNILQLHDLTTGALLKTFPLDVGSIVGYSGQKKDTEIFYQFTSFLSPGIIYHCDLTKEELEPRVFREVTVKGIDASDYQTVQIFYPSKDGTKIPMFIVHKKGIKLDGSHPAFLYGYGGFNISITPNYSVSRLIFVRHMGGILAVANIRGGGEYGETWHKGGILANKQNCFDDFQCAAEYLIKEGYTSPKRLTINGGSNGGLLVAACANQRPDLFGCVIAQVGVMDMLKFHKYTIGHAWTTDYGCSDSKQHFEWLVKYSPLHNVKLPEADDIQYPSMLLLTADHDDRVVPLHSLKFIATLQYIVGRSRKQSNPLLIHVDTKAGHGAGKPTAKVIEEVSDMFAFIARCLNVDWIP
Description: POP (EC 3.4.21.26) was dissolved in phosphate-buffered saline (PBS; 0.01 M Na/K phosphate buffer, pH 7.4, containing 137 mM NaCl and 2.7 mM KCl); the specific activity of the enzyme was 0.2 U/mL. The assay was performed in standard polystyrene 96-well microplates with a flat and clear bottom. Stock solutions of tested compounds were prepared in DMSO (10 mM). Dilutions (10^−3 to 10^−7 M) were prepared from the stock solution with deionized H2O; the control was performed with the same DMSO concentration. POP substrate, (Z)-Gly-Pro-p-nitroanilide, was dissolved in 50% 1,4-dioxane (5 mM). For each reaction, PBS (170 μL), tested compound (5 μL), and POP (5 μL) were incubated for 5 min at 37 °C. Then, substrate (20 μL) was added, and the microplate was incubated for 30 min at 37 °C. The formation of p-nitroanilide, directly proportional to the POP activity, was measured spectrophotometrically at 405 nm using a microplate ELISA reader (multimode microplate reader Synergy 2, BioTek Instruments, Winooski, VT, USA). […] All calculations were performed using GraphPad Prism software version 7.03 for Windows (GraphPad Software Inc., San Diego, California, USA).

T1 sequence (P22303 other isoform, or with tags, fused parts or gaps): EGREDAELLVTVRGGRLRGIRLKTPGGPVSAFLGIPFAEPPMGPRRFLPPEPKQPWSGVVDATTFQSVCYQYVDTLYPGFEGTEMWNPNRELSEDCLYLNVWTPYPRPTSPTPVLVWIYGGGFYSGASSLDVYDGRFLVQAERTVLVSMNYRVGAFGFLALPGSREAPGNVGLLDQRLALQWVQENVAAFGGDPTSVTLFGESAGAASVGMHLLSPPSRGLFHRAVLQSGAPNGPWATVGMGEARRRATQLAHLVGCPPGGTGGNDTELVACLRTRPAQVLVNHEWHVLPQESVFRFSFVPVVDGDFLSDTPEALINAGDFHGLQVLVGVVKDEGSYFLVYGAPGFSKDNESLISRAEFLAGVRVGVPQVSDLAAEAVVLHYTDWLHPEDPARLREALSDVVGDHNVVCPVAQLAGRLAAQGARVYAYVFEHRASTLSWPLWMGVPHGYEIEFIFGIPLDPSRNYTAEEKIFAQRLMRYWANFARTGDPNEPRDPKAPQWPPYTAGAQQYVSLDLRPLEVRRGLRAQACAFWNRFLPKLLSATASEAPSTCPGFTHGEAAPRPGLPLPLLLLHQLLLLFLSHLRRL

SMILES | IC50 [1] [µM] | inhibition at 100 µM [1] [%] | IC50 [2] [µM] | inhibition at 100 µM [2] [%] | IC50 [3] [µM] | SI for hBuChE [2] | SI for hBuChE ([2]; listed as carltonine A (13)) | SI for hBuChE ([2]; listed as carltonine B (14))
COc1ccc2c3c1O[C@H]1C=CC=C[C@@]31CCN(C)C2 [3,4-Anhydrogalanthamine (3), 3,4-anhydrogalanthamine] | > 100 | 4 | > 100 | 28 ± 1 | – | – | – | –
COc1cc(CN(C)CCc2ccc(O)cc2)c(-c2cccc3c2N(C)CC3)cc1OC [Carltonine A (13), carltonine A] | > 100 | 2 | 0.91 ± 0.02 | 98 ± 1 | 143 ± 12 | >110 | higher than 100 | –
CN(CCc1ccc(O)cc1)Cc1cc2c(cc1-c1cccc3c1N(C)CC3)OCO2 [Carltonine B (14), carltonine B] | > 100 | 40 ± 1 | 0.031 ± 0.001 | 99 ± 1 | – | >3226 | – | higher than 100
COc1cc(CN(CCc2ccc(O)cc2)Cc2cc(OC)c(OC)cc2-c2cccc3c2N(C)CC3)c(-c2cccc3c2N(C)CC3)cc1OC [Carltonine C (15), carltonine C] | > 100 | 9 | 14.8 ± 1.1 | 78 ± 1 | – | >7 | – | –
COc1cc(C=O)c(-c2cccc3c2N(C)CC3)cc1OC [Lycosinine B (1), lycosinine B] | > 100 | 28 ± 1 | > 100 | 42 ± 1 | 258 ± 14 | – | – | –
c1ccc2c(c1)ncc1cc3c(cc12)OCO3 [Trispheridine (2), trisphaeridine] | > 100 | 6 ± 1 | > 100 | 13 ± 1 | – | – | – | –

From paper PMC7277649, “Amaryllidaceae Alkaloids of Belladine-Type from Narcissus pseudonarcissus cv. Carlton as New Selective Inhibitors of Butyrylcholinesterase” (Biomolecules, 2020)
